12 molecules from US7879887B2, “α-amino acid derivatives and medicaments containing the same as an active ingredient” (Nissan Chemical Industries, Ltd., priority 2006, dated 2011) can be followed below.

Test [1] deals with colon carcinoma cell line SW620. Put plainly: Cell proliferation inhibitory activity, SW620. The test is classed as cell-based, human. As to conditions: Homo sapiens, SW-620, 96 h, cells counted 4 days later with Cell Counting Kit-8. The essentials: (§1)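 Each line, maintained as the supplier recommends, is incubated with test compound dilutions for 4 days (37° C, 5% CO2). Counting uses CCK-8; 0% inhibition corresponds to untreated cells, 100% to medium without cells or compound, and IC50 is calculated from these.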

The next test has as its target T1, CDK1/Cyclin B complex (Homo sapiens, UniProt P06493).
T1 construct: purchased Upstate Inc. 14-450
In words: In vitro kinase assay, CDK1/Cyclin B complex. It is filed as biochemical. The following applies: recombinant protein (Upstate). The procedure, abridged:
(§2)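 Recombinant human enzymes assayed per supplier protocol. IC50 derived with compound-free wells set as 0% inhibition and compound- and enzyme-free wells as 100% inhibition.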

The target in another test is T2, Aurora A (Homo sapiens, UniProt O14965).
T2 construct: purchased Upstate Inc. 14-511
T2 sequence (O14965 1-403): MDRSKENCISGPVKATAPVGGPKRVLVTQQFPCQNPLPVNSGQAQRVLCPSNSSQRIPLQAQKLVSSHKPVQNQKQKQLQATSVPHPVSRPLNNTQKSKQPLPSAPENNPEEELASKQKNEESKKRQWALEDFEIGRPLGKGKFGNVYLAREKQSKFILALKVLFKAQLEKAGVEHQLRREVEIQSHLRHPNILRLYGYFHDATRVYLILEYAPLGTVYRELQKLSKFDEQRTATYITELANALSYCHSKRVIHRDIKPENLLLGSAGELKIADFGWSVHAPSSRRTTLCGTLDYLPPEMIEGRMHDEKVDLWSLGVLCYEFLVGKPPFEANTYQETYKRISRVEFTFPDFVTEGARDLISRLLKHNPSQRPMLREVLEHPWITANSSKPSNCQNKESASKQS
In words: In vitro kinase assay, Aurora A. As to conditions: recombinant protein (Upstate). It is filed as biochemical. The procedure, abridged:
as §2

Test [2] concerns ovarian cancer cell line IGROV1. In words: Cell proliferation inhibitory activity, IGROV1. It is filed as cell-based. As to conditions: Homo sapiens, IGROV-1, 96 h, cells counted 4 days later with Cell Counting Kit-8. The essentials:
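Read-out: Cell Counting Kit-8 cell counts taken 4 days after cells in medium were added to graded test-substance concentrations. Incubation was at 37° C under 5% CO2. IC50 values were based on vehicle wells set to 0% inhibition and wells lacking compound and cells set to 100%.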

For another test, the system named is leukemia cell line KG-1a. In words: Cell proliferation inhibitory activity, KG-1a. The test is classed as cell-based. The following applies: Homo sapiens, 96 h, cells counted 4 days later with Cell Counting Kit-8. The essentials: as §1
Test [3] relates to pancreatic cancer cell line MIAPaCa-2. Put plainly: Cell proliferation inhibitory activity, MIAPaCa-2. The following applies: Homo sapiens, MIA PaCa-2, 96 h; cells counted 4 days later, Cell Counting Kit-8. It is filed as cell-based. The procedure, abridged:
as §1

Test [4] deals with prostate cancer cell line DU 145. Put plainly: Cell proliferation inhibitory activity, DU 145. The test is classed as cell-based, human. As to conditions: Homo sapiens, 96 h, cells counted 4 days later with Cell Counting Kit-8. The essentials:
as §1

Test [5] relates to lung carcinoma cell line NCI-H460. In words: Cell proliferation inhibitory activity, NCI-H460. It is filed as cell-based. The following applies: Homo sapiens, 96 h, cells counted 4 days later with Cell Counting Kit-8. The procedure, abridged: as §1
Test [6] concerns breast cancer cell line MDA-MB-231. In words: Cell proliferation inhibitory activity, MDA-MB-231. It is filed as cell-based. The following applies: Homo sapiens, 96 h, cells counted 4 days later with Cell Counting Kit-8. The procedure, abridged: as §1
A further test has as its target CDK2/Cyclin E complex (Homo sapiens, UniProt P24941). Put plainly: In vitro kinase assay, CDK2/Cyclin E complex. As to conditions: recombinant protein (Upstate); read-out: CDK2/cyclinE IC50. It is filed as biochemical. As to the method: Inhibitory activity against Aurora A, CDK1/Cyclin B complex, CDK2/Cyclin E complex and CDK3/Cyclin E complex were measured by in vitro kinase assay using recombinant proteins.

T1 sequence (P06493 whole entry): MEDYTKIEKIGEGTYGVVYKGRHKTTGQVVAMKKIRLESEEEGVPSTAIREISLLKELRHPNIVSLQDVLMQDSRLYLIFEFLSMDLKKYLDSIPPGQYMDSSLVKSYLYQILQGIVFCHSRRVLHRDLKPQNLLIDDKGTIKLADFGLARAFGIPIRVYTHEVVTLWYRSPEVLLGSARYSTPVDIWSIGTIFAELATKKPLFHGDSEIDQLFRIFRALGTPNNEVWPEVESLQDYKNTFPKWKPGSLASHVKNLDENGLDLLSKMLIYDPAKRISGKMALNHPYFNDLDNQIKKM
T1 sequence (P14635 whole entry partner): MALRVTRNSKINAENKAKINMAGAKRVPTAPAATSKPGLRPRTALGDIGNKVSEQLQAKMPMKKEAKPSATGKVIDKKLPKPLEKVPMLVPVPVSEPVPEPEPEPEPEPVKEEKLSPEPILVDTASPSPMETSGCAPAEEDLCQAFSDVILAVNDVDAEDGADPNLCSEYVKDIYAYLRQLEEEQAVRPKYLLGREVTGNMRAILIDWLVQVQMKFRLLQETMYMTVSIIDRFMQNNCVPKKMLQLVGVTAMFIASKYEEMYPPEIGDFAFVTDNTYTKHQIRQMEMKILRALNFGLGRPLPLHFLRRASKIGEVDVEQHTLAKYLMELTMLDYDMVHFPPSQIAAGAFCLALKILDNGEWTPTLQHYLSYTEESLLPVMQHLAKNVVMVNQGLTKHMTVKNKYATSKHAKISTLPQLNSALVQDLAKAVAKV

Consider `CC(C)(Nc1cccc(O)c1)C(=O)Nc1nc2ccc3[nH]ncc3c2s1` [compound 33], for which the IC50 was 400 nM in [1]; 115 nM at CDK1/Cyclin B complex; 29 nM on Aurora A; 2700 nM in test [2]; less than 100 nM in the test on leukemia cell line KG-1a; 4500 nM in test [3]. The IC50 in [4] came out at 1700 nM; in [5], 3600 nM; in test [6], 2000 nM; on CDK2/Cyclin E complex it was 33 nM.

As to `CC(=O)Nc1cc(NC(C)(C)C(=O)Nc2nc3c(C(F)(F)F)cc4[nH]ncc4c3s2)ccc1Cl` [compound 53], the IC50 in [1] amounted to 1300 nM; on CDK1/Cyclin B complex, 420 nM; at Aurora A, 227 nM; with leukemia cell line KG-1a, 300 nM; in [3] it was 4700 nM; in test [4], 1500 nM. Besides, the IC50 in test [5] was 2400 nM; in [6] it was 4000 nM; on CDK2/Cyclin E complex, 51 nM.

Take `CNC(=O)c1cc(NC(C)(C)C(=O)Nc2nc3c(C(F)(F)F)cc4[nH]ncc4c3s2)ccc1Cl` [compound 55]: the IC50 in test [1] is 300 nM; on CDK1/Cyclin B complex it was 73 nM; at Aurora A it was 185 nM; in [2] it was 2700 nM; with leukemia cell line KG-1a, less than 100 nM; in [3], 4100 nM. Further, the IC50 in test [4] worked out at 900 nM; in test [5], 800 nM; in [6], 3200 nM; at CDK2/Cyclin E complex, 44 nM.

Turning to `CCNC(=O)c1cc(NC(C)(C)C(=O)Nc2nc3c(C(F)(F)F)cc4[nH]ncc4c3s2)ccc1Cl` [compound 60], the IC50 turned out to be 300 nM in test [1]; 73 nM on CDK1/Cyclin B complex; 163 nM on Aurora A; 300 nM in the test with leukemia cell line KG-1a; 4400 nM in test [3]; 900 nM in [4]. For the same molecule, the IC50 was determined as 1500 nM in [5], 4500 nM in [6] and 37 nM on CDK2/Cyclin E complex.

On to `CC(C)(Nc1ccc(Cl)c(C(=O)NC2CC2)c1)C(=O)Nc1nc2c(C(F)(F)F)cc3[nH]ncc3c2s1` [compound 75], for which the IC50 in test [1] is 500 nM; on CDK1/Cyclin B complex, 128 nM; at Aurora A, 472 nM; in the test with leukemia cell line KG-1a, less than 100 nM; in [3] it was 3900 nM; in test [4], 1100 nM. For the same molecule, the IC50 was found to be 2000 nM in [5], 3600 nM in test [6] and 131 nM at CDK2/Cyclin E complex.

Regarding `CC(=O)Nc1cc(NC(C)(C)C(=O)Nc2nc3c(C(F)(F)F)cc4[nH]ncc4c3s2)ccc1F` [compound 81], the IC50 is 800 nM in test [1]; 377 nM at CDK1/Cyclin B complex; 444 nM at Aurora A; 2400 nM in test [2]; less than 100 nM in the test on leukemia cell line KG-1a; 4700 nM in test [3]. Also, the IC50 is 1100 nM in [4], 1300 nM in test [5], 4200 nM in test [6] and 93 nM on CDK2/Cyclin E complex.

With `CC(C)(Nc1cccc(S(N)(=O)=O)c1)C(=O)Nc1nc2c(C(F)(F)F)cc3[nH]ncc3c2s1` [compound 82], the IC50 in [1] was 200 nM; on CDK1/Cyclin B complex, 20 nM; at Aurora A, 14 nM; in [2] it was 900 nM; in the test with leukemia cell line KG-1a it was less than 100 nM; in test [3], 2500 nM. In addition, the IC50 in [4] amounted to 400 nM; in [5], 400 nM; in test [6], 2100 nM; on CDK2/Cyclin E complex it was 15 nM.

For the molecule `CC(C)(Nc1ccc(Cl)c(C(=O)NCC(N)=O)c1)C(=O)Nc1nc2c(C(F)(F)F)cc3[nH]ncc3c2s1` [compound 85], the IC50 was 300 nM in test [1]; 1.8 nM at CDK1/Cyclin B complex; 71 nM on Aurora A; 1800 nM in test [2]; less than 100 nM with leukemia cell line KG-1a; 1800 nM in test [3]. In addition, the IC50 in test [4] was 1300 nM; in test [5], 1200 nM; in test [6] it was 2500 nM; on CDK2/Cyclin E complex, 2.4 nM.

In the case of `CCC(=O)Nc1cc(NC2(C(=O)Nc3nc4ccc5[nH]ncc5c4s3)CC2)ccc1F` [compound 121], the IC50 in test [1] is 500 nM; on Aurora A, 307 nM; in test [2] it was 4800 nM; in the test with leukemia cell line KG-1a it was less than 100 nM; in test [3] it was 4600 nM; in test [4] it was 3400 nM. Further, the IC50 in [5] was found to be 2200 nM; on CDK2/Cyclin E complex it was 110 nM.

For the molecule `CC(=O)Nc1cc(NC(C)(C)C(=O)Nc2nc3ccc4[nH]ncc4c3s2)ccc1Cl` [compound 128], the IC50 is 900 nM in test [1]; 39 nM on Aurora A; 3500 nM in test [2]; less than 100 nM in the test on leukemia cell line KG-1a; 3200 nM in [3]; 1700 nM in test [4]. Also, the IC50 in test [5] turned out to be 1100 nM; in [6], 4600 nM; at CDK2/Cyclin E complex, 28 nM.

In the case of `O=C(Nc1nc2ccc3[nH]ncc3c2s1)C(CO)Nc1ccc(Cl)cc1` (centres unmarked) [compound 132], the IC50 in [1] is 600 nM; at CDK1/Cyclin B complex, 379 nM; in test [2], 1400 nM; in the test on leukemia cell line KG-1a it was less than 100 nM; in test [3], 3700 nM; in test [4], 1400 nM. For the same molecule, the figures for the IC50 (in test [5]; in test [6]; on CDK2/Cyclin E complex) were 1700 nM, 1900 nM and 20 nM, respectively.

As to `CC(C)(Nc1ccc(Cl)c(C(N)=O)c1)C(=O)Nc1nc2c(C(F)(F)F)cc3[nH]ncc3c2s1` [compound 135], the IC50 is 300 nM in [1]; 83 nM on CDK1/Cyclin B complex; 40 nM on Aurora A; 1500 nM in [2]; less than 100 nM with leukemia cell line KG-1a; 4100 nM in [3]. The IC50 in test [4] came to 500 nM; in test [5] it was 900 nM; in test [6], 1600 nM; on CDK2/Cyclin E complex, 52 nM.
